From patent US8921424B2, “Histone deacetylase inhibitors, process for preparation and uses thereof” (Zhejiang Hisun Pharmaceutical Co. Ltd., priority 2007, dated 2014)
Read-outs that look alike come from different tables or passages of the source.

What was measured:
HDACs = assay: In vitro HDACi assay (BIOMOL fluorescent-based HDAC activity assay); assay type: biochemical
Experimental: (§1) In Vitro HDACi Assay for Determination of IC50 Values
(§2) The assay has been carried out in white 96 well formats according to the BIOMOL's method. […] The reaction mixture was incubated at room temperature for 2 hours. Flur de lys Developer was added and the reaction was incubated for 10 min. Briefly, deacetylation of the substrate sensitizes to the developer, which then generates a fluorophore. The fluorophore is excited with 360 nm light and the emitted light (460 nm) is detected on a fluorometric plate reader (Molecular Device Ultra Microplate detection system, MD Group Ltd).
(§3) The analytical software, Prism 4.0 (GraphPad Software Inc) has been used to generate IC50 from a series of data.

HDAC6 = HDAC6 (Homo sapiens (Human), UniProt Q9UBN7); assay: In vitro HDACi assay, HDAC6; assay type: biochemical; details: Table 3; read-out: IC50 (nM) HDAC6
Experimental: as §1, §2, §3

MDAMB435 = assay: Cell-based proliferation assay (SRB), MDAMB435; details: Homo sapiens
Experimental: (§4) Cell-Based Proliferation Assay for Determination of GI50 Values
(§5) A rapid multiwell plate assay using Sulforhodamine B (SRB) protein stain was adopted to evaluate the growth inhibitory effects of the compounds of the present invention. The screening panel of cancer cell lines includes Colo205 and HCT116 colon cancer cells, MDA-MB231 and MDA-MB435 chest cancer cells, A549 lung cancer cells, and Chinese hamster ovary cell line CHO, which were obtained from ATCC.
(§6) The cell line Colo205 is grown in RPMI 1640 medium containing 2 mM L-glutamine, 5% fetal bovine serum, and 1.0 mM sodium pyruvic acid. Cell lines A549 and MDA-MB231 are grown in RPMI 1640 medium containing 2 mM L-glutamine and 5% fetal bovine serum. The cell line MDA-MB435 is grown in DMEM medium containing 2 mM L-glutamine and 5% fetal bovine serum. The cell lines HCT 116 is grown in IMEM medium containing 2 mM L-glutamine and 5% fetal bovine serum. The CHO cell line, used as a normal control on toxicity, is grown in a special medium for cell line. For a typical screening experiment, A549 and Colo205 cells are inoculated into 96-well microtiter plates, with 100 μL per well, and 2000 and 5000 cells per well respectively for either cell line. MDA-MB435, HCT116, MDA-MB231 and CHO cells are also inoculated into 96-well microtiter plates, with 6000 cells per well. After cell inoculation, the microtiter plates are incubated at 37° C., 5% CO2, and 100% relative humidity for 24 hr in order to make cells adhere to well wall.
(§7) After 24 h incubation or time zero for drug addition, with each cell line 50 μl of cold 50% (w/v) TCA is added to wells used for control to fix cells in situ. Also at time zero, cells in other wells are treated with 100 μl of compound of different concentrations for 24 hr, 48 hr, and 72 hr respectively, with varying final compound concentration (0.1 μM, 1 μM, 5 μM 10 μM). For each treatment duration at each compound concentration, there are triplicate wells, as well as an array of control wells including a blank control well (cell culture medium only, no cells), a no-compound control well (adding same volume of cell culture medium but no compound), a positive control well (treated with Suberoylanilide hydroxamic acid (SAHA)), and normal cell well control (CHO cells). Following the addition of compounds, cell plates are incubated for 24 h, 48 h or 72 h per treatment group at 37° C., 5% CO2, and 100% relative humidity. The Treatment is then terminated by addition of cold TCA and incubation of 1 hr at 4° C. The supernatant is discarded, and all wells are washed five times with de-ioned water and air dried. Then each well is added with 100 μl sulforhodamine B (SRB) solution (0.4% (w/v) made in 1% acetic acid) and cell plates are incubated for 20-30 minutes at room temperature. After staining, unbound dye is removed by washing five times with 1% acetic acid and the plates are air dried. Bound stain is subsequently solubilized with 10 mM (200 μL) Tris base with the help of 5 min platform vibration or pipetting up and down, and the absorbance is read on an automated plate reader (M5 detection system, MD Group Ltd.) at a wavelength of 565 nm (calibrated zero reading of blank control at wavelength of 690 nm). The analytical software, XL-fit has been used to generate GI50 from a series of data thus obtained.

HL-60 = assay: Cell-based proliferation assay (SRB), HL-60; details: Homo sapiens
Colo205 = assay: Cell-based proliferation assay (SRB), Colo205; details: Homo sapiens
Experimental: as §4, §5, §6, §7

HCT116 = assay: Cell-based proliferation assay (SRB), HCT116; details: Homo sapiens
Experimental: as §4, §5, §6, §7

SKOV-3 = assay: Cell-based proliferation assay (SRB), SKOV-3; details: Homo sapiens
Experimental: as §4, §5, §6, §7

BXPC-3 = assay: Cell-based proliferation assay (SRB), BXPC-3; details: Homo sapiens
MDAMB231 = assay: Cell-based proliferation assay (SRB), MDAMB231; details: Homo sapiens, MDA-MB-231; Table 4
Experimental: as §4, §5, §6, §7

[1] = Microsomal stability and clearance; assay type: in vitro ADME, human, mouse; details: microsomal stability; Table 4
Experimental: Measure of Microsomal Stability and Clearance with Compounds of this Invention
Verapamil (positive control) and compound solution, both at 10 mM, are diluted 200 fold. There are six reaction time points in the experiment (0 min, 5 min, 15 min, 30 min, 45 min, and 60 min), and triplicate samples are used for each data point. There are controls for time zero and negative drug effect (negative control containing no incubation buffer or enzyme). For each compound or Verapamil sample, there are also samples treated with compound or Verapamil at concentrations of no positive effect (at 5 μM and 2.5 μM, respectively). Diluted positive control (Verapamil) and compound solution are mixed with pre-heated (37° C.) incubation buffer (100 mM potassium phosphate buffer, NADPH regeneration system solution B, NAPDH regeneration system solution A, HLM/MLM in Milli-Q ultrapure water), and incubated at 37° C. for 10 min. 100 μL of stop solution mixture is (containing 80% acetonitrile, and 20% DMSO, both of HPLC grade) is dispensed into wells of separate sampling plates into each well. At each reaction time point (0 min, 5 min, 15 min, 30 min, 45 min, and 60 min) 50 μL of reaction solution is taken from wells in the incubation plate and transferred to its corresponding well in the sampling plate, and mixed by pipetting up and down with stop solution already added there. The sampling plates are then covered, placed on ice, and centrifuged at 2,000 rpm at 4° C. for 15 min. 100 μL supernatant is then taken from each well to LC/MS analysis (or stored at 4° C. in refrigerator until analysis).
Data analysis: % remaining of compound is calculated by area of each time point with respect to time 0% remaining against time (min) curve is plotted using the first-phase exponential decay equation y=y0e(−kT) on the Prism 4.0. Results are shown in the format of TOP, K, t1/2 (min), R2 value and % remaining against time curve.

[2] = Table 3, read-out: IC50 (nM) HDACs
[3] = Table 4, read-out: HDAC enzyme inhibition activity IC50

Chain of HDAC6 (Q9UBN7 whole entry, species assumed): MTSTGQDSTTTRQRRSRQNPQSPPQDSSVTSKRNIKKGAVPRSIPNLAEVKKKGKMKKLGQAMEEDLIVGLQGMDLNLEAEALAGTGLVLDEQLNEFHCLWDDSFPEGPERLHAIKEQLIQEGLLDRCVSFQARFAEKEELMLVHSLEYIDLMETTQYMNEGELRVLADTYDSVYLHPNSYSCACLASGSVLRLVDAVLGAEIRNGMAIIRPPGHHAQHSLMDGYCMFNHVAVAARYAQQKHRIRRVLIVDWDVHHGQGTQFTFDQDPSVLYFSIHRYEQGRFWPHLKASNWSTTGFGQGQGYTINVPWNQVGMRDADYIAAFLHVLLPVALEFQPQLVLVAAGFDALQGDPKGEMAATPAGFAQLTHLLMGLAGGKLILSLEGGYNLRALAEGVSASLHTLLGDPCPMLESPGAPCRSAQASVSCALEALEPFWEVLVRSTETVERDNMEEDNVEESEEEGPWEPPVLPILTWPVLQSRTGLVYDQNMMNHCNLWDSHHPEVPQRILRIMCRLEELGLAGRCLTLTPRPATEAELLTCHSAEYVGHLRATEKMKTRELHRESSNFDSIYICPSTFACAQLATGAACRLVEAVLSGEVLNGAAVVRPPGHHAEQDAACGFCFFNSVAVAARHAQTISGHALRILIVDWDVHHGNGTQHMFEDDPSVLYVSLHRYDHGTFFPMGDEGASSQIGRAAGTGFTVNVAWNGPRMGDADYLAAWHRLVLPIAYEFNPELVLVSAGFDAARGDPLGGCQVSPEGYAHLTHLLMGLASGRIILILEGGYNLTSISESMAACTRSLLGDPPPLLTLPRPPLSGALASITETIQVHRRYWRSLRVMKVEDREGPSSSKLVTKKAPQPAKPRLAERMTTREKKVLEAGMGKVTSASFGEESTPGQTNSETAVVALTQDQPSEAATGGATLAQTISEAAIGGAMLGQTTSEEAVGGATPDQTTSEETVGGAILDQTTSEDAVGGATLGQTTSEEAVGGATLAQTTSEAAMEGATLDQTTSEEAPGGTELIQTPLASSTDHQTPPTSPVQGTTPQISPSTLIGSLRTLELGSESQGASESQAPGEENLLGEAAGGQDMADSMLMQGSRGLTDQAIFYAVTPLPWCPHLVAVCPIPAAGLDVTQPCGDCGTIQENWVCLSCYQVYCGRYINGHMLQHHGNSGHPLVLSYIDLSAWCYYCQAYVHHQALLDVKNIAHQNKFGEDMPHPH

Row | IC50 (HDACs; [2]) [nM] | IC50 (HDAC6) [nM] | IC50 (HDACs; [3]) [nM] | GI50 (MDAMB435; MDA-MB-435, Table 3) [µM] | GI50 (MDAMB435; MDA-MB-435, Table 4) [µM] | GI50 (HL-60; HL-60, Table 3) [µM] | GI50 (HL-60; HL-60, Table 4) [µM] | GI50 (Colo205; COLO 205, Table 3) [µM] | GI50 (Colo205; COLO 205, Table 4) [µM] | GI50 (HCT116; HCT-116, Table 3) [µM] | GI50 (HCT116; HCT-116, Table 4) [µM] | GI50 (SKOV-3; SK-OV-3, Table 3) [µM] | GI50 (SKOV-3; SK-OV-3, Table 4) [µM] | GI50 (BXPC-3; BXPC-3, Table 3) [µM] | GI50 (MDAMB231) [µM] | half-life [1] [h] | GI50 (BXPC-3; BXPC-3, Table 4) [µM] | SMILES
1 | > 100 | 350 | – | – | – | – | – | – | – | – | – | – | – | – | – | – | – | C=CCNc1cc(/C=C/C(=O)NO)ccc1SCCN(CC)CC [Example 7, 3-(3-(allylamino)-4-(2-(di-ethylamino)ethylthio)phenyl)-N-hydroxy-acrylamide]
2 | 19 | 653 | 19000 | 2.6 | 2.6 | 1.98 | 1.98 | 2.95 | 2.95 | 3.65 | 3.65 | 2.58 | 2.58 | 14.5 | 2.98 | 1.8 | – | CCCNc1cc(/C=C/C(=O)NO)ccc1SCCN(CC)CC [Example 3, 3-(4-(2-(diethylamino)ethylthio)-3-(propylamino)phenyl)-N-hydroxy-acrylamide]
3 | 95 | 800 | – | 16.6 | – | 15.2 | – | 10.6 | – | 13.9 | – | 15.6 | – | 16 | – | – | – | CCN(CC)CCSc1ccc(/C=C/C(=O)NO)cc1NC [Example 8, 3-(4-(2-(diethylamino)ethylthio)-3-(methylamino)phenyl)-N-hydroxy-acrylamide]
4 | – | – | – | 5.96 | – | 4.31 | – | 5.63 | – | 2.56 | – | 3.82 | – | 97.7 | – | – | – | CCN(CC)CCSc1ccc(/C=C/C(=O)NO)cc1NC(=O)C(Cl)Cl [Example 13, 3-(3-(2,2-dichloroacetamido)-4-(2-(diethylamino)ethylthio)phenyl)-N-hydroxy-acrylamide]
5 | > 100 | 357 | 86000 | – | 3.56 | – | 1.63 | – | 2 | – | 2.02 | – | 0.7 | – | 4.63 | 1.6 | 3.56 | CCN(CC)CCSc1ccc(/C=C/C(=O)NO)cc1NC(C)=O [Example 4]
6 | 35 | 275 | 96000 | 1.95 | – | 1.32 | – | 2.28 | – | 0.78 | – | 2.81 | – | 4.33 | 4.39 | 2.5 | – | CCN(CC)CCSc1ccc(/C=C/C(=O)NO)cc1NCc1ccccc1 [Example 6, 3-(3-(benzylamino)-4-(2-(di-ethylamino)ethylthio)phenyl)-N-hydroxy-acrylamide]
7 | > 100 | 295 | – | – | – | – | – | – | – | – | – | – | – | – | – | – | – | CCN(CC)CCSc1ccc(/C=C/C(=O)NO)cc1N [Example 9, 3-(3-amino-4-(2-(diethylamino)ethylthio)phenyl)-N-hydroxy-acrylamide]
8 | 98 | 627 | 98000 | 3.33 | 3.33 | 3.52 | 3.52 | 5.68 | 5.68 | 0.78 | 0.78 | 4.57 | 4.57 | 15 | 3.49 | 1.4 | – | CCN(CC)CCSc1ccc(/C=C/C(=O)NO)cc1NCCCc1ccccc1 [Example 1, 3-(4-(2-(diethylamino)ethylthio)-3-(3-phenylpropylamino)phenyl)-N-hydroxy-acrylamide]
9 | 55 | 200 | – | 10.2 | – | 15.7 | – | 17.6 | – | 18.2 | – | 16.9 | – | 19.9 | – | – | – | CCCCCNC(=O)Nc1cc(/C=C/C(=O)NO)ccc1SCCN(CC)CC [Example 10, 3-(4-(2-(diethylamino)ethylthio)-3-(3-pentylureido)phenyl)-N-hydroxy-acrylamide]
10 | 86 | 313 | 35000 | 3.56 | – | 1.63 | – | 2 | – | 2.02 | – | 0.7 | – | 95.4 | 1.92 | 2.2 | – | CCN(CC)CCSc1ccc(/C=C/C(=O)NO)cc1[N+](=O)[O-] [Example 5, 3-(4-(2-(diethylamino)ethylthio)-3-nitrophenyl)-N-hydroxy-acrylamide]
11 | > 100 | 310 | – | – | – | – | – | – | – | – | – | – | – | – | – | – | – | C=CCCCNc1cc(/C=C/C(=O)NO)ccc1SCCN(CC)CC [Example 12, 3-(4-(2-(diethylamino)ethylthio)-3-(pent-4-enylamino)phenyl)-N-hydroxy-acrylamide]
